Data published in PubChem BioAssay AID1918994 (Molecular Pharmacology Branch, DTP, NCI, 2023).
pIC50: −log10 of the molar value.

Tested on: 292921-168-R-J2-PDC complex spheroid growth
Test: Anticancer human tumor 292921-168-R-J2-PDC patient-derived pancreatic carcinoma cell line growth inhibition [AhR]
Details: for pIC50: curve of first compound; for viability, T/C: stronger effect = lower value
From the text: Multicellular complex tumor spheroid response to aryl hydrocarbon receptor antagonists in combination with a variety of drugs and investigational agents in selected tumor cell lines
The current study was undertaken to assess response to aryl hydrocarbon receptor antagonists in combination with standard-of-care drugs and investigational agents in solid tumor complex spheroid models. Complex spheroids include a stromal component modeled by human endothelial cells (HUVEC) and fibroblasts modeled by human mesenchymal stem cells (MSCs). The concentration ranges selected for each drug and investigational agent were based upon clinically achievable concentrations if the clinical Cmax of the agent was known.
Compounds. The drugs and investigational agents: BAY 2416964 (NSC825713), GNF351 (NSC835774), CH-223191 (NSC835775), CPI-455 (NSC825282), aza-TdCyd (NSC777586), decitabine (NSC127716), belinostat (NSC758774), entinostat (NSC756642), pevonedistat (NSC761192), tazemetostat (NSC777109), talazoparib (NSC765396), olaparib (NSC753686), selinexor (NSC780203), nedisertib (M3814, NSC802822), bortezomib (NSC756655), venetoclax (NSC766270), doxorubicin (NSC123127), elimusertib (BAY189344, NSC800525), ceralasertib (AZD6738, NSC777638), TAK-243 (NSC785004), alisertib (NSC759677), etoposide (NSC141540), topotecan (NSC609699), eribulin (NSC707389), gemcitabine (NSC613327), carboplatin (NSC241240), cisplatin (NSC119875), and SN-38 (NSC673596) were obtained from the National Cancer Institute (NCI) Developmental Therapeutics Program Chemical Repository (32). The FDA-approved anticancer drug set is available from the Developmental Therapeutics Program at https://dtp.cancer.gov/organization/dscb/obtaining/available plates.htm. […] The stock solutions were prepared in dimethyl sulfoxide (DMSO, Sigma-Aldrich, St. Louis, MO, cat. D2650), except for the platinum compounds which were prepared in saline (Quality Biological, Gaithersburg, MD, cat. 114-055-101), at 800-fold the tested concentration and stored at -70 degrees C prior to their use. All drugs and investigational agents were tested over a range starting from a high concentration at or near the clinical Cmax and decreasing in half-log increments. If the clinical Cmax for an agent had not been determined, the highest concentration tested was 10 microM (Table 1).
Cell Culture. All cells were maintained in an incubator at 37 degrees C and 5% CO2 with 95% humidity. The PDC lines were cultured according to standard operating procedures established by the NCI PDMR (https://pdmr.cancer.gov). Briefly, all PDCs were thawed and cultured in Matrigel-coated flasks prepared with a working solution of 1X Ham's F-12 nutrient mix, without supplementation (Invitrogen, Waltham, MA, cat. 11765054), 100 U/mL penicillin-streptomycin (Invitrogen, cat. 15140122), and 2.5% Matrigel (Corning Inc., Corning, NY, cat. 354248) for the first three passages. All PDCs were cultured in complete DMEM/F-12 media containing advanced DMEM/F-12 (Invitrogen, cat. 12634028), 4.9% defined fetal bovine serum, heat inactivated (HyClone Laboratories Inc., Logan, UT, cat. SH30070.03HI), 389 ng/mL hydrocortisone (Sigma-Aldrich, cat. H4001), 9.7 ng/mL human EGF recombinant protein (Invitrogen, cat. PHG0313), 23.4 microg/mL adenine (Sigma-Aldrich, cat. A2786), 97.3 U/mL penicillin-streptomycin (Invitrogen, cat. 15140122), 1.9 mM L-glutamine (Invitrogen, cat. 25030081), and 9.7 microM Y-27632 dihydrochloride (Tocris Bioscience, Bristol, United Kingdom, cat. 1254). The PDCs were cultured in complete DMEM/F12 media without 10 microM Y-27632 dihydrochloride for at least two passages prior to the screen. The established cell lines NCI-H1341 and […] were cultured in DMEM/F-12, HEPES (Invitrogen, cat. 11330032), 5% defined fetal bovine serum (HyClone Laboratories Inc., cat. SH30070.03), ITS premix universal culture supplement [insulin (5 microg/mL), transferrin (5 microg/mL), and selenious acid (5 ng/mL)] […]

[1] = second compound 0.1 µM, first compound 0.00316 µM
[2] = second compound 0.1 µM, first compound 0.01 µM
[3] = second compound 0.1 µM, first compound 0.0316 µM
[4] = second compound 0.1 µM, first compound 0.1 µM
[5] = second compound 0.316 µM, first compound 0.00316 µM
[6] = second compound 0.316 µM, first compound 0.01 µM
[7] = second compound 0.316 µM, first compound 0.0316 µM
[8] = second compound 0.316 µM, first compound 0.1 µM
[9] = second compound 1 µM, first compound 0.00316 µM
[10] = second compound 1 µM, first compound 0.01 µM
[11] = second compound 1 µM, first compound 0.0316 µM
[12] = second compound 1 µM, first compound 0.1 µM
[13] = second compound 3.16 µM, first compound 0.00316 µM
[14] = second compound 3.16 µM, first compound 0.01 µM
[15] = second compound 3.16 µM, first compound 0.0316 µM
[16] = second compound 3.16 µM, first compound 0.1 µM
[17] = second compound 10 µM, first compound 0.00316 µM
[18] = second compound 10 µM, first compound 0.01 µM
[19] = second compound 10 µM, first compound 0.0316 µM
[20] = second compound 10 µM, first compound 0.1 µM
[21] = second compound 0.1 µM, first compound 0.316 µM
[22] = second compound 0.1 µM, first compound 1 µM
[23] = second compound 0.1 µM, first compound 3.16 µM
[24] = second compound 0.1 µM, first compound 10 µM
[25] = second compound 0.316 µM, first compound 0.316 µM
[26] = second compound 0.316 µM, first compound 1 µM
[27] = second compound 0.316 µM, first compound 3.16 µM
[28] = second compound 0.316 µM, first compound 10 µM
[29] = second compound 1 µM, first compound 0.316 µM
[30] = second compound 1 µM, first compound 1 µM
[31] = second compound 1 µM, first compound 3.16 µM
[32] = second compound 1 µM, first compound 10 µM
[33] = second compound 3.16 µM, first compound 0.316 µM
[34] = second compound 3.16 µM, first compound 1 µM
[35] = second compound 3.16 µM, first compound 3.16 µM
[36] = second compound 3.16 µM, first compound 10 µM
[37] = second compound 10 µM, first compound 0.316 µM
[38] = second compound 10 µM, first compound 1 µM
[39] = second compound 10 µM, first compound 3.16 µM
[40] = second compound 10 µM, first compound 10 µM
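Further: spheroids exposed to compounds for seven days after three days of growth.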

| pIC50 (second compound 0.1 µM) | pIC50 (second compound 0.316 µM) | pIC50 (second compound 1 µM) | pIC50 (second compound 3.16 µM) | pIC50 (second compound 10 µM) | Compound | viability, T/C [3] [%] | viability, T/C [4] [%] | viability, T/C [7] [%] | viability, T/C [8] [%] | viability, T/C [11] [%] | viability, T/C [12] [%] | viability, T/C [15] [%] | viability, T/C [16] [%] | viability, T/C [19] [%] | viability, T/C [20] [%] | viability, T/C [21] [%] | viability, T/C [22] [%] | viability, T/C [25] [%] | viability, T/C [26] [%] | viability, T/C [29] [%] | also measured |
| --- | --- | --- | --- | --- | --- | --- | --- | --- | --- | --- | --- | --- | --- | --- | --- | --- | --- | --- | --- | --- | --- |
| 7.53 | 7.55 | 7.51 | 7.59 | 7.74 | CC[C@@]1(O)C(=O)OCc2c1cc1n(c2=O)Cc2cc3c(CN(C)C)c(O)ccc3nc2-1 + CC(CO)NC(=O)c1cc(-c2ccc(Cl)cc2)nn(-c2cnn(C)c2)c1=O | 48.6 | 21.8 | 49.3 | 24 | 50.4 | 23.3 | 45.1 | 23.6 | 40 | 22 | – | – | – | – | – | viability, T/C (second compound 0.1 µM, first compound 0.000316 µM): 101%; viability, T/C (second compound 0.1 µM, first compound 0.001 µM): 99.9%; viability, T/C [1]: 100%; viability, T/C [2]: 78.6%; viability, T/C (second compound 0.316 µM, first compound 0.000316 µM): 104%; viability, T/C (second compound 0.316 µM, first compound 0.001 µM): 103%; viability, T/C [5]: 106%; viability, T/C [6]: 75.2%; viability, T/C (second compound 1 µM, first compound 0.000316 µM): 101%; viability, T/C (second compound 1 µM, first compound 0.001 µM): 98.2%; viability, T/C [9]: 99.5%; viability, T/C [10]: 77.4%; viability, T/C (second compound 3.16 µM, first compound 0.000316 µM): 91.4%; viability, T/C (second compound 3.16 µM, first compound 0.001 µM): 81.6%; viability, T/C [13]: 90.6%; viability, T/C [14]: 72.5%; viability, T/C (second compound 10 µM, first compound 0.000316 µM): 68%; viability, T/C (second compound 10 µM, first compound 0.001 µM): 67.7%; viability, T/C [17]: 63.1%; viability, T/C [18]: 62% |
| 6.19 | 6.25 | 6.27 | 6.38 | 6.79 | COc1cc(C2c3cc4c(cc3C(OC3OC5COC(C)OC5C(O)C3O)C3COC(=O)C23)OCO4)cc(OC)c1O (stereo not given) + CC(CO)NC(=O)c1cc(-c2ccc(Cl)cc2)nn(-c2cnn(C)c2)c1=O | 95.7 | 92.4 | 89.3 | 85.5 | 98.8 | 90.9 | 85.1 | 75 | 60.9 | 60 | 67.9 | 38 | 65 | 33.6 | 61.7 | viability, T/C [23]: 22.6%; viability, T/C [24]: 13.7%; viability, T/C [27]: 24.4%; viability, T/C [28]: 13.7%; viability, T/C [30]: 34.4%; viability, T/C [31]: 24.6%; viability, T/C [32]: 13.7%; viability, T/C [33]: 56.3%; viability, T/C [34]: 31.3%; viability, T/C [35]: 22.4%; viability, T/C [36]: 11.8%; viability, T/C [37]: 38.8%; viability, T/C [38]: 27.4%; viability, T/C [39]: 19.6%; viability, T/C [40]: 11.4% |
| > 7.50 | > 7.50 | > 7.50 | > 7.50 | > 7.50 | COc1cccc2c1C(=O)c1c(O)c3c(c(O)c1C2=O)CC(O)(C(=O)CO)CC3OC1CC(N)C(O)C(C)O1 (stereo not given) + CC(CO)NC(=O)c1cc(-c2ccc(Cl)cc2)nn(-c2cnn(C)c2)c1=O | 32.5 | 22.5 | 31.8 | 21.6 | 31.9 | 26.1 | 29.6 | 22.4 | 25.2 | 19.9 | 7.11 | 1.19 | 8.73 | 1.26 | 8.6 | viability, T/C [23]: 3.72%; viability, T/C [24]: 4.17%; viability, T/C [27]: 2.17%; viability, T/C [28]: 4.63%; viability, T/C [30]: 1.22%; viability, T/C [31]: 2%; viability, T/C [32]: 4.64%; viability, T/C [33]: 5.98%; viability, T/C [34]: 1.4%; viability, T/C [35]: 2.71%; viability, T/C [36]: 3.71%; viability, T/C [37]: 4.23%; viability, T/C [38]: 1.07%; viability, T/C [39]: 2.43%; viability, T/C [40]: 5.08% |
| < 6.00 | < 6.00 | < 6.00 | < 6.00 | < 6.00 | Nc1ncn(C2CC(O)C(CO)O2)c(=O)n1 (stereo not given) + CC(CO)NC(=O)c1cc(-c2ccc(Cl)cc2)nn(-c2cnn(C)c2)c1=O | 87.1 | 88.8 | 105 | 90.8 | 103 | 94.5 | 92.4 | 76.5 | 71 | 73 | 80.9 | 73.7 | 85.8 | 77.8 | 86.2 | viability, T/C [1]: 102%; viability, T/C [2]: 93.3%; viability, T/C [5]: 101%; viability, T/C [6]: 96.3%; viability, T/C [9]: 97.5%; viability, T/C [10]: 104%; viability, T/C [30]: 78.8%; viability, T/C [13]: 94.7%; viability, T/C [14]: 91%; viability, T/C [33]: 81.4%; viability, T/C [34]: 69.5%; viability, T/C [17]: 70.3%; viability, T/C [18]: 72.8%; viability, T/C [37]: 63%; viability, T/C [38]: 62.5% |
